Data on six molecules can be found in patent publication US20140235568A1, “GEMCITABINE AMIDE DERIVATIVE AND PREPARATION METHOD AND USE THEREOF” (priority 2011, published 2014).

Converted amounts (≈) assume the structure as drawn. Like-named read-outs stand apart in the source and are kept apart here.

In one series the test system is hepatitis C virus. Conditions: patients, minimum dose, within a few days (1-2 days in some cases); cited from earlier work.
The test system of series [1] is HCT116 (human colon cancer cells). The experiment in a line: MTT assay, in vitro inhibition of proliferation of human tumor cells. The format is cell-based. Conditions: for IC50: Homo sapiens, HCT-116, 72 h; for HCT116 100 μg/ml IC %: inhibition at 100 μg/ml, 72 h. Here is the method:
(§1) The tumor cell lines used in the experiments were as follows: A549 (human lung cancer cells), HCT116 (human colon cancer cells), HepG2 (human hepatoma cells), ZR-75-30 (human breast cancer cell), purchased from Shanghai Institute of Pharmaceutical Industry.
(§2) The sample was dissloved in DMSO (Merck), and PBS was added to prepare a 1000 μg/mL of solution or a uniform suspension. And then, DMSO-containing PBS (−) was added to dilute the solution or suspension. The positive control medicaments were gemcitabine (GEM) and LY2334737 developed by Eli Lilly and Company.
(§3) MTT assay: 100 μL cell suspension (4˜5×10^4 cells/mL) was added into each well of 96-well plate, and cultured in 37° C., 5% CO2 incubator. After 24 h, the sample solution was added in duplicate, 10 μL/well, and incubated at 37° C., 5% CO2 for 72 h. 20 μL MTT solution (5 mg/mL) was added into each well. After 4 h, a dissolving solution was added, 100 μL/well. The plate was placed into the incubator. After dissolved, OD value at 570 nm was measured on MK-2 automatic microplate reader.
Background: Tetrazolium assays rely on reduction of a dye to a coloured formazan, in cell work by metabolically active cells.

The test system of series [2] is ZR-75-30 (human breast cancer cell). The description is as above. Format: cell-based. The note with it: for IC50: Homo sapiens, ZR-75-30, 72 h; for ZR-75-30 100 μg/ml IC %: inhibition at 100 μg/ml, 72 h. Here is the method: as §1, §2, §3
Series [3] relates to A549 (human lung cancer cells). The series is described as above. The format is cell-based. The note with it: for IC50: Homo sapiens, A549, 72 h; for A549 100 μg/ml IC %: inhibition at 100 μg/ml, 72 h. Here is the method:
as §1, §2, §3

The test system of series [4] is HepG2 (human hepatoma cells). Described as above. Format: cell-based. The note with it: for IC50: Homo sapiens, HepG2, 72 h; for HepG2 100 μg/ml IC %: inhibition at 100 μg/ml, 72 h. The protocol:
as §1, §2, §3

Series [5] relates to human colon cancer cells HCT116 xenografts. The series is described as follows: In vivo antitumor activity test, xenografts in nude mice. The note with it: dosed 0.1-10 mg/kg body weight, better than LY2334737 at the same dose. The protocol: Some of the compounds were tested in vivo using human colon cancer cells HCT116 xenografts in nude mice according to a literature method (Wei Hong, Medical Laboratory Animal Science, Sichuan Science and Technology Press, 2nd edition, Chengdu, 2001, 595-596).

Another series has as its system NCI 60 human tumor cells. The experiment in a line: NCI in vitro cytotoxic activity screening. The note with it: for GI50: Homo sapiens, derived from MGM; for MGM: NCI 60 human tumor cells, GI50 in M (log). Format: cell-based. Here is the method: The cytotoxic activities of Compounds SYN-141 and SYN-165 were assayed in NCI systemactically.

Take `Nc1ccn([C@@H]2O[C@H](CO)[C@@H](O)C2(F)F)c(=O)n1` [GEM, gemcitabine]: the “reduction of hepatitis C viral load” value in the series on hepatitis C virus was at least 2 logarithmic unit. In addition, in series [1], the IC50 worked out at 0.0237 mg/L (≈ 0.09 µM) and the “HCT116 100 μg/ml IC %” value amounted to 78.07%. In series [2], inhibition was half-maximal at 0.454 mg/L (≈ 1.72 µM) (IC50) and the “ZR-75-30 100 μg/ml IC %” value stood at 96.60%. In series [3], inhibition was half-maximal at 3.74 mg/L (≈ 14.2 µM) (IC50) and the “A549 100 μg/ml IC %” value stood at 57.57%. In addition, in series [4], inhibition was half-maximal at 0.263 mg/L (≈ 0.999 µM) (IC50) and the “HepG2 100 μg/ml IC %” value is recorded as 53.34%.
Turning to `CCCC(CCC)C(=O)Nc1ccn([C@@H]2O[C@H](CO)[C@@H](O)C2(F)F)c(=O)n1` [LY-2334737, N4-valproyl gemcitabine, reference compound], in series [1], the IC50 was determined as 3.81 mg/L (≈ 9.78 µM) and the “HCT116 100 μg/ml IC %” value was found to be 84.51%. In addition, in series [2], the IC50 came to 29.3 mg/L (≈ 75.3 µM) and the “ZR-75-30 100 μg/ml IC %” value stood at 78.36%. For the same molecule, in series [3], the IC50 stood at 18.3 mg/L (≈ 46.9 µM) and the “A549 100 μg/ml IC %” value is reported as 60.05%. In series [4], 1.78 mg/L (≈ 4.57 µM) corresponded to half-maximal inhibition (IC50) and the “HepG2 100 μg/ml IC %” value was determined as 67.52%.
Molecule `CCCC(=O)Nc1ccn([C@@H]2O[C@H](CO)C(O)C2(F)F)c(=O)n1` (stereo partly drawn) [SYN-140, N^4-n-butyryl gemcitabine] registered a melting point of 198 °C. Also, the “in vivo antitumor activity” value in series [5] is listed as “potent in vivo antitumor activity”. Moreover, in series [1], the IC50 was 0.395 mg/L (≈ 1.19 µM) and the “HCT116 100 μg/ml IC %” value came out at 87.79%. Also, in series [2], the IC50 was found to be 3.01 mg/L (≈ 9.03 µM) and the “ZR-75-30 100 μg/ml IC %” value was determined as 89.52%. Further, in series [3], the IC50 amounted to 4.26 mg/L (≈ 12.8 µM) and the “A549 100 μg/ml IC %” value turned out to be 64.84%. Moreover, in series [4], the IC50 turned out to be 84.4 mg/L (≈ 253 µM) and the “HepG2 100 μg/ml IC %” value stood at 50.42%.
With `O=C(CCCc1ccccc1)Nc1ccn([C@@H]2O[C@H](CO)C(O)C2(F)F)c(=O)n1` (stereo partly drawn) [SYN-141, N^4-(4-phenyl)butyryl Gemcitabine], the melting point turned out to be 111 °C. For the same molecule, in series [5], the “in vivo antitumor activity” value is “potent in vivo antitumor activity”. Moreover, in series [1], 0.269 mg/L (≈ 0.657 µM) corresponded to half-maximal inhibition (IC50) and the “HCT116 100 μg/ml IC %” value was found to be 92.46%. Also, in series [2], the IC50 was determined as 4.7 mg/L (≈ 11.5 µM) and the “ZR-75-30 100 μg/ml IC %” value is on record as 91.63%. For the same molecule, in series [3], the IC50 is 5.6 mg/L (≈ 13.7 µM) and the “A549 100 μg/ml IC %” value is 56.38%. In series [4], the IC50 was determined as 7.2 mg/L (≈ 17.6 µM) and the “HepG2 100 μg/ml IC %” value is listed as 62.48%. Moreover, the GI50 in the series with NCI 60 human tumor cells (read-out: total average GI50 against 60 human tumor cell lines) worked out at 0.62 µM. Also, in the series on NCI 60 human tumor cells, the MGM is −6.21.
Take `CCCCC(=O)Nc1ccn([C@@H]2O[C@H](CO)C(O)C2(F)F)c(=O)n1` (stereo partly drawn) [SYN-147, N^4-n-valeryl Gemcitabine Gemcitabine]: the melting point stood at 184 °C. Also, in series [5], the “in vivo antitumor activity” value was “potent in vivo antitumor activity”. In addition, in series [1], the IC50 worked out at 0.193 mg/L (≈ 0.556 µM) and the “HCT116 100 μg/ml IC %” value is 88.14%. Moreover, in series [2], the IC50 was 1.13 mg/L (≈ 3.25 µM) and the “ZR-75-30 100 μg/ml IC %” value is on record as 90.22%. In series [3], the midpoint of inhibition, the IC50, lay at 7.82 mg/L (≈ 22.5 µM) and the “A549 100 μg/ml IC %” value came to 58.09%. Besides, in series [4], the IC50 amounted to 0.246 mg/L (≈ 0.708 µM) and the “HepG2 100 μg/ml IC %” value came to 59.49%.
In the case of `CCCCCCCC(=O)Nc1ccn([C@@H]2O[C@H](CO)C(O)C2(F)F)c(=O)n1` (stereo partly drawn) [SYN-165, N^4-n-octanoyl Gemcitabine], the melting point was 139 °C. In addition, the “in vivo antitumor activity” value in series [5] is reported as “potent in vivo antitumor activity”. Also, in series [1], half-maximal inhibition (IC50) was put at 0.154 mg/L (≈ 0.395 µM) and the “HCT116 100 μg/ml IC %” value is 99.01%. Besides, in series [2], the IC50 is 0.135 mg/L (≈ 0.347 µM) and the “ZR-75-30 100 μg/ml IC %” value is on record as 96.30%. Also, in series [3], inhibition was half-maximal at 42.5 mg/L (≈ 109 µM) (IC50) and the “A549 100 μg/ml IC %” value came out at 55.82%. Moreover, in series [4], it took 0.123 mg/L (≈ 0.316 µM) to reach half-maximal inhibition (IC50) and the “HepG2 100 μg/ml IC %” value worked out at 77.90%. For the same molecule, the GI50 in the series on NCI 60 human tumor cells (read-out: total average GI50 against 60 human tumor cells) is 0.0758 µM. In the series with NCI 60 human tumor cells, the MGM was −7.12.

One may read the IC50 as the point on the concentration scale where inhibition reaches its midpoint. A lower IC50 goes with inhibition by little substance. One may read the melting point as the temperature, or range, at which the solid turns liquid. A word on the GI50: it is the concentration that inhibits growth by half.
